Assay results reported in PubChem BioAssay (NCI).
“And” between values parts separate entries of the source, which are not always exact repeats. Equal entries are not always repeated.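 Interpolation was linear, between the two tested concentrations surrounding the appropriate level; five concentrations were tested over 48 hours in 96-well plates. The concentration for 50% growth inhibition is given as GI50. TGI marks complete inhibition of growth.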 Where a SMILES comes first, the peptide text is derived from it. The star is where a group is joined. Cbz = O=C(OCc1ccccc1)*; Boc = CC(C)(C)OC(=O)*; OSu = O=C1CCC(=O)N1O*; Bn = c1ccc(C*)cc1

Key:
Assay in all cases: inhibition of tumour cell growth, NCI panel, 48 h
SK-OV-3 ovarian = test system: SK-OV-3 ovarian
NCI/ADR-RES ovarian = test system: NCI/ADR-RES ovarian
MCF7 breast = test system: MCF7 breast
HCT-15 colon = test system: HCT-15 colon
HOP-62 NSCLC = test system: HOP-62 NSCLC
K-562 leukemia = test system: K-562 leukemia
CCRF-CEM leukemia = test system: CCRF-CEM leukemia
SK-MEL-28 melanoma = test system: SK-MEL-28 melanoma
MOLT-4 leukemia = test system: MOLT-4 leukemia
IGROV1 ovarian = test system: IGROV1 ovarian
SK-MEL-2 melanoma = test system: SK-MEL-2 melanoma
HS 578T breast = test system: HS 578T breast

| Structure (SMILES) | TGI (SK-OV-3 ovarian) | TGI (NCI/ADR-RES ovarian) | TGI (MCF7 breast) | TGI (HCT-15 colon) | TGI (HOP-62 NSCLC) | TGI (K-562 leukemia) [µM] | TGI (CCRF-CEM leukemia) [µM] | TGI (SK-MEL-28 melanoma) | TGI (MOLT-4 leukemia) | TGI (IGROV1 ovarian) [µM] | TGI (SK-MEL-2 melanoma) | TGI (HS 578T breast) [µM] | GI50 (SK-OV-3 ovarian) [µM] | GI50 (MCF7 breast) [µM] | GI50 (K-562 leukemia) [µM] | GI50 (SK-MEL-28 melanoma) | GI50 (MOLT-4 leukemia) [µM] |
| --- | --- | --- | --- | --- | --- | --- | --- | --- | --- | --- | --- | --- | --- | --- | --- | --- | --- |
| CN(C)S(=O)(=O)/N=C/c1cccc(/C=N/S(=O)(=O)N(C)C)c1 | > 100 µM | > 100 µM | > 100 µM | > 100 µM | > 100 µM | > 100 | > 100 | > 100 µM | > 100 µM |  |  |  |  |  |  |  |  |
| COC1=CCC=C(C[C@@H]2NCCc3cc(OC)c(OC)cc32)C1 | > 100 µM |  |  | > 100 µM | > 100 µM | > 100 | > 100 | > 100 µM | > 100 µM | > 100 | > 100 µM |  |  |  |  |  |  |
| CC(=O)NC1=C(NCCN(C)C)C(=O)c2ccccc2C1=O | > 50 µM |  |  | 20.5 µM | > 50 µM | > 50 | > 50 | > 50 µM | > 50 µM | > 50 | > 50 µM |  |  |  |  |  |  |
| CNC(=O)N(CCC#N)CCCN(C(=O)NC)c1ccccc1 | > 100 µM | > 100 µM | > 100 µM | > 100 µM | > 100 µM | > 100 | > 100 | > 100 µM | > 100 µM | > 100 | > 100 µM |  |  |  |  |  |  |
| COC(=O)[C@@H]1CN(C(C)=O)C(=O)N1C(=O)OCc1ccccc1 | > 100 µM | > 100 µM |  | > 100 µM | > 100 µM | > 100 | > 100 | > 100 µM | > 100 µM | > 100 | > 100 µM | > 100 |  |  |  |  |  |
| CC(C)(C)OC(=O)NCCc1cccc2c1oc1c(CCC(=O)O)cccc12 | > 100 µM |  |  | > 100 µM |  | > 100 | > 100 | > 100 µM | > 100 µM | > 100 | > 100 µM |  |  |  |  |  |  |
| O=S(=O)(O)c1ccc(N=Nc2c(O)ccc3cc(Br)ccc23)cc1 | > 100 µM | > 100 µM |  | > 100 µM | > 100 µM |  | > 100 | > 100 µM | > 100 µM | > 100 | > 100 µM | > 100 |  |  |  |  |  |
| N#Cc1c(N)[nH]c(=S)c(C#N)c1-c1ccccc1 |  |  | > 100 µM | > 100 µM | > 100 µM | > 100 | > 100 | > 100 µM | > 100 µM | > 100 | > 100 µM | > 100 |  |  |  |  |  |
| c1ccc(-n2nc3ccc4nonc4c3n2)cc1 | > 100 µM | > 100 µM | > 100 µM | > 100 µM | > 100 µM | > 100 | > 100 | > 100 µM | > 100 µM | > 100 | > 100 µM |  |  |  |  |  |  |
| NC(=S)N/N=C1\NC(=O)/C(=C/c2ccc3c(c2)OCO3)S1 | > 100 µM | 78.7 µM | > 100 µM | 82.6 µM | 51.5 µM |  |  | 78.7 µM | 67.3 µM | 49.4 | 90.1 µM |  |  |  |  |  |  |
| COC1C=COC2(C)Oc3c(C)c(O)c4c(O)c(c(/C=N/N5CCN(N)CC5)c(O)c4c3C2=O)NC(=O)C(C)=CC=CC(C)C(O)C(C)C(O)C(C)C(OC(C)=O)C1C (configuration not stated) | > 100 µM |  |  | > 100 µM | > 100 µM | > 100 | 47.9 | > 100 µM | > 100 µM | > 100 | > 100 µM |  |  |  |  |  |  |
| COc1ccc2[nH]cc([C@@H]3C4CCC(C4)[C@H]3NCc3cccc(CN[C@H]4C5CCC(C5)[C@@H]4c4c[nH]c5ccc(OC)cc45)c3)c2c1 | 2.94 µM and 2.95 µM | 3.04 µM and 2.98 µM | 2.25 µM and 2.86 µM | 1.95 µM and 2.39 µM | 2.89 µM and 2.97 µM |  | 1.08 | 3.05 µM and 3.07 µM | 3.76 µM and 1.29 µM | 2.61 | 2.91 µM and 2.99 µM |  | 1.6 | 0.805 | 0.375 | 1.67 µM and 1.68 µM | 1.56 |
| Cc1nc(N/N=C/c2ccccc2Cl)[nH]c(=O)c1CCO | 43.4 µM | > 100 µM | > 100 µM | > 100 µM | 50.4 µM | > 100 | > 100 | > 100 µM | > 100 µM | > 100 |  | 81.1 |  |  |  |  |  |
| O=C(O)c1ccc(NC(NC(=O)C(C(F)(F)F)C(F)(F)F)(C(F)(F)F)C(F)(F)F)cc1 | > 100 µM | > 100 µM |  | > 100 µM |  | > 100 | > 100 | > 100 µM | > 100 µM | > 100 | > 100 µM | > 100 |  |  |  |  |  |
| O=C(O)CCc1ccc2c(c1)C(=O)CC2 | > 100 µM | > 100 µM | > 100 µM | > 100 µM | > 100 µM | > 100 | > 100 | > 100 µM | > 100 µM | > 100 | > 100 µM |  |  |  |  |  |  |
| CC(C)(C)OC(=O)NC(Cc1ccc(OCc2ccccc2)cc1)C(=O)NC(CCCCNC(=O)OCc1ccccc1)C(=O)ON1C(=O)CCC1=O (configuration not stated) (Boc-Tyr(Bn)-Lys(Cbz)-OSu; configuration not given here) |  |  | 44.3 µM | 32 µM | 42.8 µM | 73.6 |  | 30.8 µM | 48.2 µM | 33.1 | 33.8 µM | 67.1 |  |  |  |  |  |
| CC1(C)C(O)C[C@@H](O)[C@@]2(C)C1CC[C@]1(C)C2C[C@@H](O)[C@@H]2C([C@@]3(C)CC[C@@H](C(C)(C)O)O3)CCC21C (some centres not stated) | 33.5 µM |  |  | 25.1 µM | 30.3 µM | > 100 | > 66.1 | 27.1 µM | 67.7 µM | 28.1 | 28.9 µM |  |  |  |  |  |  |
| O=C(c1ccccc1)c1ccc(-n2c3ccccc3c3ccc4c(c32)C(=O)C=CC4=O)cc1 | 42.9 µM | 60.5 µM | 10 µM | 31.3 µM | 33.6 µM | > 100 |  | 30.1 µM | > 35.4 µM | 37.5 | 37.3 µM | > 55.5 |  |  |  |  |  |
| Cc1ncc2c(=O)c3c(oc2n1)c1ccccc1n3Cc1ccccc1 |  | > 100 µM | > 100 µM | > 100 µM | 79.5 µM | > 100 | > 100 | > 100 µM | > 100 µM | > 100 |  | > 100 |  |  |  |  |  |
